# Data: patent publication US7629344B2, “3-(imidazolyl)-pyrazolo[3,4-b]pyridines” (ChemoCentryx, Inc., priority 2007, dated 2009)
# Test system: Female New Zealand rabbits
# Assay: Rabbit model of destructive joint inflammation (rabbit LPS study)
# Format: in vivo
# Details: intra-articular LPS (10 ng) in both knees; dosed orally 2 hours before and 4 hours after LPS; knees lavaged sixteen hours after LPS
# Protocol: A rabbit LPS study was conducted essentially as described in Podolin, et al. J. Immunol. 169(11):6435-6444 (2002). Female New Zealand rabbits (approximately 2 kilograms) were treated intra-articularly in both knees with LPS (10 ng). The compound of interest, for example 1.016, (formulated in 1% methocel) or vehicle (1% methocel) was dosed orally at a 5 ml/kg dose volume at two times (2 hours before the intra-articular LPS injection and 4 hours after the intra-articular LPS injection). Sixteen hours after the LPS injection, knees were lavaged and cells counts were performed. Beneficial effects of treatment were determined by reduction in the number of inflammatory cells recruited to the inflamed synovial fluid of the knee joints.
row,SMILES,number of inflammatory cells recruited to the inflamed synovial fluid of the knee joints
1,"COc1cc(N2CCN(C(=O)Cn3nc(-c4ncc[nH]4)c4cccnc43)CC2)ccc1Cl [1.016, 1-[4-(4-Chloro-3-methoxy-phenyl)-piperazin-1-yl]-2-[3-(1H-imidazol-2-yl)-pyrazolo[3,4-b]pyridin-1-yl]-ethanone]",significant reduction

# Target: T1, CCR1 (Homo sapiens, UniProt P32246)
# T1 construct: host or cells: THP-1 cells or freshly isolated monocytes
# T1 sequence (P32246 1-355): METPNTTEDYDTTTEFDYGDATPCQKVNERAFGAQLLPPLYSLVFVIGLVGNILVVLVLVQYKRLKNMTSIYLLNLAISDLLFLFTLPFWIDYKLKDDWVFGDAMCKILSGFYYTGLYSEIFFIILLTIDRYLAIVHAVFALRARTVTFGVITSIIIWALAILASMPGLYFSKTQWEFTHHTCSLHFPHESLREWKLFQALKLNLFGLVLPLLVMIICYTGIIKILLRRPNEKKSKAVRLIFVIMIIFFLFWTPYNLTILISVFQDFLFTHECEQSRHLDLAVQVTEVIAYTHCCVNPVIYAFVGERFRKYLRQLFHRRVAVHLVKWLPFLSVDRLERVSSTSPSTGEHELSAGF
# Assay: Chemotaxis assay (inhibition of CCR1 mediated migration)
# Format: cell-based
# Details: THP-1 or monocyte cells; CCR1 chemokine ligand (MIP-1α, CCL15/Leukotactin); 1-2 hours at 37° C.
# Protocol: THP-1 cells were obtained from ATCC (TIB-202) and cultured as a suspension in RPMI-1640 medium supplemented with 2 mM L-glutamine, 1.5 g/L sodium bicarbonate, 4.5 g/L glucose, 10 mM HEPES, 1 mM sodium pyruvate, 0.05% 2-mercaptoethanol and 10% FBS. Cells were grown under 5% CO2/95% air, 100% humidity at 37° C. and subcultured twice weekly at 1:5 (cells were cultured at a density range of 2×10^5 to 2×10^6 cells/mL) and harvested at 1×10^6 cells/mL. THP-1 cells express CCR1 and can be used in CCR1 binding and functional assays. • 2. Chemotaxis Assays
# Chemotaxis assays were performed using 5 μm pore polycarbonate, polyvinylpyrrolidone-coated filters in 96-well chemotaxis chambers (Neuroprobe; Gaithersburg, Md.) using chemotaxis buffer (Hank's balanced salt solution (HBSS) and 1% FBS). CCR1 chemokine ligands (i.e., MIP-1α, CCL15/Leukotactin; R&D Systems; Minneapolis, Minn.) are use to evaluate compound mediated inhibition of CCR1 mediated migration. Other chemokines (i.e., SDF-1α; R&D Systems; Minneapolis, Minn.) are used as specificity controls. The lower chamber was loaded with 29 μl of chemokine (i.e., 0.1 nM CCL15/Leukotactin) and varying amounts of compound; the top chamber contained 100,000 THP-1 or monocyte cells in 20 μl. The chambers were incubated 1-2 hours at 37° C., and the number of cells in the lower chamber quantified either by direct cell counts in five high powered fields per well or by the CyQuant assay (Molecular Probes), a fluorescent dye method that measures nucleic acid content and microscopic observation. • B. Identification of Inhibitors of CCR1
# One of the primary functions of chemokines is their ability to mediate the migration of chemokine receptor-expressing cells, such as white blood cells. To confirm that a compound of interest inhibited not only CCR1 specific binding and signaling (at least as determined by calcium mobilization assays), but also CCR1 mediated migration, a chemotaxis assay was employed. THP-1 myelomonocytic leukemia cells, which resemble monocytes, as wells as freshly isolated monocytes, were used as targets for chemoattraction by CCR1 chemokine ligands (i.e., MIP-1α, CCL15/leukotactin). Cells were placed in the top compartment of a microwell migration chamber, while MIP-1α (or other potent CCR1 chemokine ligand) and increasing concentrations of a compound of interest was loaded in the lower chamber. […] In this assay, the amount of compound was varied; while cell number and chemokine agonist concentrations were held constant. After the chemotaxis chambers were incubated 1-2 hours at 37° C., the responding cells in the lower chamber were quantified by labeling with the CyQuant assay (Molecular Probes), a fluorescent dye method that measures nucleic acid content, and by measuring with a Spectrafluor Plus (Tecan). The computer program Prism from GraphPad, Inc. (San Diego, Calif.) was used to calculate IC50 values. IC50 values are those compound concentrations required to inhibit the number of cells responding to a CCR1 agonist by 50%. • 1. In Vivo Efficacy • a) Rabbit Model of Destructive Joint Inflammation
row,SMILES,IC50 [nM]
1,"CCOc1cc(N2CCN(C(=O)Cn3nc(-c4ncc[nH]4)c4cccnc43)CC2)c(F)cc1Cl [1.001, 1-[4-(4-Chloro-5-ethoxy-2-fluorophenyl)piperazin-1-yl]-2-[3-(1H-imidazol-2-yl)-pyrazolo[3,4-b]pyridin-1-yl]ethanone]",≤ 100
2,"O=C(Cn1nc(-c2ncc[nH]2)c2cccnc21)N1CCN(c2cc(OCCF)c(Cl)cc2F)CC1 [1.002, 1-{4-[4-Chloro-2-fluoro-5-(2-fluoroethoxy)-phenyl]piperazin-1-yl}-2-[3-(1H-imidazol-2-yl)-pyrazolo[3,4-b]pyridin-1-yl]ethanone]",≤ 100
3,"CCOc1cc(N2CCN(C(=O)Cn3nc(-c4ncc[nH]4)c4cccnc43)CC2)ccc1Cl [1.003, 1-[4-(4-Chloro-3-ethoxyphenyl)piperazin-1-yl]-2-[3-(1H-imidazol-2-yl)pyrazolo[3,4-b]pyridin-1-yl]ethanone]",≤ 100
4,"COc1cc(N2CCN(C(=O)Cn3nc(-c4ncc[nH]4)c4cccnc43)CC2)c(F)cc1Cl [1.004, 1-[4-(4-Chloro-2-fluoro-5-methoxyphenyl)piperazin-1-yl]-2-[3-(1H-imidazol-2-yl)-pyrazolo[3,4-b]pyridin-1-yl]ethanone]",≤ 100
5,"COc1cc(N2CCN(C(=O)Cn3nc(-c4ncc[nH]4)c4cccnc43)[C@@H](C)C2)ccc1Cl [1.005, 1-[(S)-4-(4-Chloro-3-methoxyphenyl)-2-methylpiperazin-1-yl]-2-[3-(1H-imidazol-2-yl)-pyrazolo[3,4-b]pyridin-1-yl]ethanone]",≤ 100
6,"COc1cc(N2CCN(C(=O)Cn3nc(-c4ncc[nH]4)c4cccnc43)[C@@H](C)C2)c(F)cc1Cl [1.006, 1-[(S)-4-(4-Chloro-2-fluoro-5-methoxyphenyl)-2-methylpiperazin-1-yl]-2-[3-(1H-imidazol-2-yl)pyrazolo[3,4-b]pyridin-1-yl]ethanone]",≤ 100
7,"COc1cc(N2CCN(C(=O)Cn3nc(-c4ncc[nH]4)c4cccnc43)C[C@H]2C)ccc1Cl [1.007, 1-[(R)-4-(4-Chloro-3-methoxyphenyl)-3-methylpiperazin-1-yl]-2-[3-(1H-imidazol-2-yl)-pyrazolo[3,4-b]pyridin-1-yl]ethanone]",≤ 100
8,"COc1cc(N2CCN(C(=O)Cn3nc(-c4ncc[nH]4)c4cccnc43)C[C@@H]2C)ccc1Cl [1.008, 1-[(S)-4-(4-Chloro-3-methoxyphenyl)-3-methylpiperazin-1-yl]-2-[3-(1H-imidazol-2-yl)-pyrazolo[3,4-b]pyridin-1-yl]ethanone]",≤ 100
9,"COc1cc(N2CCN(C(=O)Cn3nc(-c4ncc[nH]4)c4cccnc43)[C@H](C)C2)ccc1Cl [1.009, 1-[(R)-4-(4-Chloro-3-methoxyphenyl)-2-methylpiperazin-1-yl]-2-[3-(1H-imidazol-2-yl)-pyrazolo[3,4-b]pyridin-1-yl]ethanone]",≤ 100
10,"CCOc1cc(N2CCN(C(=O)Cn3nc(-c4ncc[nH]4)c4cccnc43)[C@@H](C)C2)ccc1Cl [1.010, 2-(3-(1H-imidazol-2-yl)-1H-pyrazolo[3,4-b]pyridin-1-yl)-1-((S)-4-(4-chloro-3-ethoxyphenyl)-2-methylpiperazin-1-yl)ethanone]",≤ 100
11,"O=C(Cn1nc(-c2ncc[nH]2)c2cccnc21)N1CCN(c2ccc(Cl)c(OCCF)c2)CC1 [1.011, 2-(3-(1H-imidazol-2-yl)-1H-pyrazolo[3,4-b]pyridin-1-yl)-1-(4-(3-(2-fluoroethoxy)-4-chlorophenyl)piperazin-1-yl)ethanone]",≤ 100
12,"C[C@H]1CN(c2ccc(Cl)c(OCCF)c2)CCN1C(=O)Cn1nc(-c2ncc[nH]2)c2cccnc21 [1.012, 2-(3-(1H-imidazol-2-yl)-1H-pyrazolo[3,4-b]pyridin-1-yl)-1-((S)-4-(3-(2-fluoroethoxy)-4-chlorophenyl)-2-methylpiperazin-1-yl)ethanone]",≤ 100
13,"Cc1cc(N2CCN(C(=O)Cn3nc(-c4ncc[nH]4)c4cccnc43)CC2)ccc1Cl [1.013, 1-[4-(4-Chloro-3-methyl-phenyl)-piperazin-1-yl]-2-[3-(1H-imidazol-2-yl)-pyrazolo[3,4-b]pyridin-1-yl]-ethanone]",≤ 100
14,"O=C(Cn1nc(-c2ncc[nH]2)c2cccnc21)N1CCN(c2ccc(Cl)c(C(F)(F)F)c2)CC1 [1.014, 1-[4-(4-Chloro-3-trifluoromethyl-phenyl)-piperazin-1-yl]-2-[3-(1H-imidazol-2-yl)-pyrazolo[3,4-b]pyridin-1-yl]-ethanone]",> 100
15,"O=C(Cn1nc(-c2ncc[nH]2)c2cccnc21)N1CCN(c2ccc(Cl)c(OC(F)(F)F)c2)CC1 [1.015, 1-[4-(4-Chloro-3-trifluoromethoxy-phenyl)-piperazin-1-yl]-2-[3-(1H-imidazol-2-yl)-pyrazolo[3,4-b]pyridin-1-yl]-ethanone]",> 100
16,"COc1cc(N2CCN(C(=O)Cn3nc(-c4ncc[nH]4)c4cccnc43)CC2)ccc1Cl [1.016, 1-[4-(4-Chloro-3-methoxy-phenyl)-piperazin-1-yl]-2-[3-(1H-imidazol-2-yl)-pyrazolo[3,4-b]pyridin-1-yl]-ethanone]",≤ 100
17,"COc1cc(N2CCN(C(=O)Cn3nc(-c4nccn4C)c4cccnc43)CC2)ccc1Cl [1.017, 1-[4-(4-Chloro-3-methoxy-phenyl)-piperazin-1-yl]-2-[3-(1-methyl-1H-imidazol-2-yl)-pyrazolo[3,4-b]pyridin-1-yl]-ethanone]",≤ 100

# Test system: not given
# Assay: not given
# Details: not given
row,SMILES,melting point [°C]
1,"COc1cc(N2CCN(C(=O)Cn3nc(-c4ncc[nH]4)c4cccnc43)CC2)ccc1Cl [1.016, 1-[4-(4-Chloro-3-methoxy-phenyl)-piperazin-1-yl]-2-[3-(1H-imidazol-2-yl)-pyrazolo[3,4-b]pyridin-1-yl]-ethanone]",149 to 152

# Test system: not listed separately
# Assay: Pharmacokinetic tests conducted in animals
# Format: in vivo
# Details: over related compounds (U.S. Publication No. 2007/0010524A1)
SMILES,AUC,Cmax,oral bioavailability
"COc1cc(N2CCN(C(=O)Cn3nc(-c4ncc[nH]4)c4cccnc43)CC2)ccc1Cl [1.016, 1-[4-(4-Chloro-3-methoxy-phenyl)-piperazin-1-yl]-2-[3-(1H-imidazol-2-yl)-pyrazolo[3,4-b]pyridin-1-yl]-ethanone]",increased,increased,improved
